Experimental data: patent US5462861A, “Method for improving enzyme activities with noble gases” (American Air Liquide, Chicago Research Center, priority 1993, dated 1995)
Entries after “also recorded” stand apart in the source; their conditions may differ.

Columns and labels:
Glucose oxidase = Glucose oxidase (Aspergillus niger, UniProt P13006); test: Glucose oxidase activity under gas; type: biochemical; conditions: for effect on glucose oxidase: FIG. 28; for effect: minus = inhibition, dependent upon temperature and substrate concentration
Chain of Glucose oxidase (P13006 17-605): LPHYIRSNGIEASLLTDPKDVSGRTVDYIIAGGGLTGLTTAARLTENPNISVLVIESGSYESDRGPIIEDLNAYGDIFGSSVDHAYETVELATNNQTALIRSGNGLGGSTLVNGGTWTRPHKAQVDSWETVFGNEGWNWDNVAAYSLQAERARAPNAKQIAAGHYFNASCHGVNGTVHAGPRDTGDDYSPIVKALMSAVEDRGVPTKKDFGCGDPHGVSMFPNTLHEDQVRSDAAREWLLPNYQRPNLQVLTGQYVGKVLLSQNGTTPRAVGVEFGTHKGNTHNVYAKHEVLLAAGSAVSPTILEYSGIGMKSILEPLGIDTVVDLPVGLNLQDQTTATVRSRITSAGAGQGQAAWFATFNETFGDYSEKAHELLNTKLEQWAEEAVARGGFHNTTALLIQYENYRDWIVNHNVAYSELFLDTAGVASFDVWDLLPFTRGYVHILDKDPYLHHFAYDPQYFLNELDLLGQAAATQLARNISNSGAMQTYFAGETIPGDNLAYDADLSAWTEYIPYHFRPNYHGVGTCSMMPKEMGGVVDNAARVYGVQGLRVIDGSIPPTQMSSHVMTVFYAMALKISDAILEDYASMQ
Experimental: (§1) Solution preparation: Optimized w/v solutions are prepared by diluting the enzyme (units/ml) and the substrate (μg/ml) in appropriate buffer (optimized pH and molarity for enzymes). The solutions are used for gas experiments at once to avoid loss of activity. Various enzyme and substrate concentrations and inhibitors may be employed. Physical parameters are varied as required.
(§2) Preparation of samples: Cuvets are filled with 2 ml of substrate solution by means of a gas-tight syringe. Gas-tight serum vials are filled with enzyme and solvent. Sufficient gas is consecutively bubbled in the cuvets and serum vials, with a 1-hr wait between injections to maximize equilibration of gas. All syringes and dead spaces are purged before filling with the appropriate gas. The amount of gas used has been measured sufficient to saturate the solution required.
(§3) Spectrophotometric time-drive, reaction rate, and kinetic analyses: cuvets and serum vials are saturated with gas 40 minutes before the run. A gas-filled syringe is used to retrieve 0.5 ml of enzyme solution to avoid air contact. The 0.5 ml syringe injections of enzyme are made simultaneously to effect a common starting time to for the samples. 7 gases (air, O2, N2, Ne, Ar, Kr, Xe) are run at various temperatures each (from 0° to 60° ). Changes in the rate or final equilibrium of the reaction versus ambient air are recorded. Comparison is also made with added oxygen, and with deoxygenation. Some samples are also prepared under pressure.

[1] = target: Gamma-glutamyl transpeptidase (Homo sapiens, UniProt P19440); test: Gamma-glutamyl transpeptidase activity under gas; type: biochemical; conditions: for effect: minus = inhibition; for effect on α-glutamyltranspeptidase: FIG. 29
Chain of Gamma-glutamyl transpeptidase (P19440 1-380 limits assumed): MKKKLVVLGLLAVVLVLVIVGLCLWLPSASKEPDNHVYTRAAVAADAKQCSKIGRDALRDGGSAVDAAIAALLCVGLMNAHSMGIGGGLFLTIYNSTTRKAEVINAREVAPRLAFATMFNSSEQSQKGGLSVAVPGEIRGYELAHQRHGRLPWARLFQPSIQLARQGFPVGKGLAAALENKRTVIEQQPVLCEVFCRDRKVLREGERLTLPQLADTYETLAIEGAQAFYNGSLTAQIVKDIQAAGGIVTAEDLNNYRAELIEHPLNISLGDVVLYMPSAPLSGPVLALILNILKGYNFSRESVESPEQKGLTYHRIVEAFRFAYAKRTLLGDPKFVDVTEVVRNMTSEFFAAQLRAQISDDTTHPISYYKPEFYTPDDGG
Experimental: as §1, §2, §3
(§4) In a complete experiment, an enzyme at optimal pH and buffering salt concentration is reacted with 5 substrate concentrations in solution with noble gas at 1 atm. […] Controls are also run after evacuation of solution by vacuum. The reaction is monitored colorimetrically in a scanning spectrophotometer in real time, and the signals are treated mathematically to obtain rate and yield differences. Sample numbers are constant and sufficient to ensure significance of results. All parameters are independently controlled and measured, and more complex experiments are occasionally carried out.

[2] = tested on: phenylalanine ammonia lyase; test: Phenylalanine ammonia lyase activity under gas; type: biochemical; conditions: for effect on phenylalanine ammonia-lyase: FIG. 32; for effect on phenylalanine ammonia lyase: head not printed
Experimental: as §1, §2, §3, §4

β-D-Glucosidase = test: High pressure experiments, β-D-glucosidase; type: biochemical, Almonds
Experimental: Experiments were conducted in pressure cells pressurized with additional test gas after solution was already saturated, at 2 atmospheres or at 3 atmospheres in real-time, or after pressurizing in a 1-liter cylinder for 1 hour or ~24 hours at 30.6 atmospheres and at 100 atmospheres.
Rinse the cylinders with copious quantities of D.I. H2 O. Then rinse the cylinders with the second enzyme solution (glucosidase). Place a 25 ml aliquot of enzyme solution into each of 2 disposable gas cylinders. Shake the enzyme in each cylinder for several minutes and then remove a 5 ml sample for Control B and Control C.
Remove cylinders to the dock, gassing with the appropriate gas; bring pressure slowly up to 30.6 atm. Let sit at the required pressure for 60 minutes. Slowly depressurize to 2 psi before bringing into the lab.
Bring the cylinders back to the dock and repressurize to 100 atm with the appropriate gas. Let sit at the required pressure for 60 minutes. Slowly depressurize to 2 psi before bringing into the lab.
Cuvettes were filled for the 2 atm experiments for both enzymes. Each cuvette was gassed 10×10 cc with the appropriate gas and refrigerated for 15 minutes prior to running. Serum vials were filled with 5 cc of the corresponding enzyme and gassed with 10×10 cc of the appropriate gas prior to running. The spectrophotometers were set up such that a continuous flow of each gas could be delivered to each spectro at all times. A 100 psimax gauge was installed to read the cuvette pressure and 2 on/off valves were installed so that the reference cell could be pressurized during the second replicate. A ball valve was installed between the cylinder/house line and the gauge so that gas flow could be controlled directly at the spectrophotometers. A check valve was placed in each line to ensure that a back pressure would not cause contamination of the house lines or the gas cylinders. The cuvettes retained the 2 needles during the entire run. One of the needles was attached to the gas line while the second was used for enzyme introduction and then plugged. Due to the bulky nature of the assembly it was impossible to use the installed doors of the spectrophotometers therefore they were removed. A 4-layer thick black felt cover was prepared for each spectro to minimize the amount of light entering the system.
While the cuvette was equilibrating to temperature in the spectrophotometer both needles remained in the cuvette with 10 cc syringes still attached. Prior to enzyme introduction one of the syringes was removed while the gas line was attached to the needle. A small flow of gas run through the line while this was done to ensure that there was no oxygen contamination. The needles remained above the liquid level. The second syringe was removed to allow constant flow through the cuvette. The enzyme was injected through the second needle using a 1 cc syringe. The needle was then plugged, the cuvette pressurized and the run begun.
A nonpressurized gas run using all four gases was done for each enzyme. Each cuvette was gassed with 10×10 cc of the corresponding gas and refrigerated for 15 minutes. The 2 needles used for gassing the cuvettes were removed when the cuvettes were placed into the spectrophotometer. Enzyme was introduced into the cuvettes using a 1 cc syringe with a 20G11/2 needle attached. The needle was placed into the cuvette through the silicone plug but not immersed into the liquid. This was to ensure that enzyme introduction into the cuvette was the same as for the pressurized gas run.
The same method as used in Trial 2 on Apr. 30, 1991 was used for this trial.
At 3 atmospheres pressure, the degree of enhancement observed was changed as follows: […]

α-D-glucosidase = α-D-glucosidase activity under gas; type: biochemical; conditions: for effect on α-D-glucosidase: FIG. 31; for effect on α-glucosidase activity: 60° C., FIG. 43
Experimental: Solution preparation: Optimized w/v solutions are prepared by diluting the enzyme (units/ml) and the substrate (μg/ml) in appropriate buffer (optimized pH and molarity for enzymes). The solutions are used for gas experiments at once to avoid loss of activity. Various enzyme and substrate concentrations and inhibitors may be employed. Physical parameters are varied as required. […] Gas-tight serum vials are filled with enzyme and solvent. Sufficient gas is consecutively bubbled in the cuvets and serum vials, with a 1-hr wait between injections to maximize equilibration of gas. All syringes and dead spaces are purged before filling with the appropriate gas. The amount of gas used has been measured sufficient to saturate the solution required. Spectrophotometric time-drive, reaction rate, and kinetic analyses: cuvets and serum vials are saturated with gas 40 minutes before the run. A gas-filled syringe is used to retrieve 0.5 ml of enzyme solution to avoid air contact. […] Changes in the rate or final equilibrium of the reaction versus ambient air are recorded. Comparison is also made with added oxygen, and with deoxygenation. Some samples are also prepared under pressure.

tyrosinase = test: Oxygen addition experiment, tyrosinase; type: biochemical
Experimental: as §4

[3] = optimized enzyme concentration, first value column
[4] = optimized enzyme concentration, second value column
[5] = optimized enzyme concentration, third value column
[6] = suboptimal enzyme concen., first value column
[7] = suboptimal enzyme concen., second value column
[8] = suboptimal enzyme concen., third value column
[9] = at 3 atmospheres pressure (value after the > sign), minus = inhibition
[10] = before pressurization (value before the > sign)
[11] = after addition of oxygen up to a saturating amount to the gas-saturated solution
[12] = gas-saturated solution before addition of oxygen

SMILES | effect on glucose oxidase (Glucose oxidase) | effect (Glucose oxidase) [%] | effect [1] [%] | effect on phenylalanine ammonia-lyase [2] | effect on phenylalanine ammonia lyase [2, 3] | effect on phenylalanine ammonia lyase [2, 4] | effect on phenylalanine ammonia lyase [2, 5] | effect on phenylalanine ammonia lyase [2, 6] | effect on phenylalanine ammonia lyase [2, 7] | effect on phenylalanine ammonia lyase [2, 8] | degree of enhancement observed (β-D-Glucosidase; [9]) | degree of enhancement observed (β-D-Glucosidase; [10]) | effect on α-D-glucosidase (α-D-glucosidase) | effect on α-glutamyltranspeptidase [1] | inhibition (tyrosinase; [11]) | inhibition (tyrosinase; [12]) [%] | effect on α-glucosidase activity (α-D-glucosidase) | effect on β-glucosidase (β-D-Glucosidase; 30 atm. pressure, FIG. 38) | effect on β-glucosidase (β-D-Glucosidase; 100 atm. pressure, 25° C., FIG. 37)
[Ne] [Ne, neon] | inhibition | -61.7 | -3 | enhancement | -2 | +6 | -6 | +15 | 0 | +6 | -12.5 | +1.0 | enhancement |  |  |  |  |  | 
[Ar] [Ar, argon] | inhibition | -85.8 | -5 |  | +6 | +1 | +3 | -1 | +1 | +6.5 | -13.2 | +1.0 | enhancement | inhibition | 12% | 82 | enhanced; also recorded: potent enhancer |  | 
[Xe] [Xe, xenon] | inhibition | -91.6 | -7 |  | +18 | +3 | +5 | +14 | +8 | +11 | -15.7 | +3.1 |  | inhibition | 50% | 85 | enhanced |  | 
N#N [N2, nitrogen, reference compound] | inhibition |  |  | enhancement | +19 | 0 | +6 | 0 | 0 | +12 | -5.0 | 0 | enhancement |  | zero inhibition | 84 | enhanced | inhibitory effect | inhibitory effect
[Kr] [Kr, krypton] | inhibition | -92.7 | -8 |  | +7 | +4 | +4 | +3 | +18 | +14 | -6.2 | +2.0 |  | inhibition |  |  | inhibited |  | 
